Results as given in patent US20250269018A1, “COMBINED CANCER THERAPY WITH AN EPITHELIAL CELL ADHESION MOLECULE (EPCAM) INHIBITOR AND A HEPATOCYTE GROWTH FACTOR RECEPTOR (HGFR) INHIBITOR” (ACADEMIA SINICA, priority 2021, published 2025).

System: GSK3β, active β-catenin and Snail
Assay: Western blotting of GSK3β, active β-catenin, Snail and EMT proteins in HCT116 cells
Assay type: cell-based, human
Conditions: HCT116
Description: FIGS. 4A to 4L. EpEX induces EMT and invasion by stabilizing β-catenin and Snail through decreasing GSK3β activity. (FIG. 4A) The protein expression of EMT markers and regulators was detected by Western blotting in Wild-type (WT) or EpCAM knockout (KO) HCT116 cells after EpEX treatment. (FIG. 4B) Cell invasion was examined by Transwell chamber assay with matrigel. (FIG. 4C) WT or KO HCT116 and HT29 cells were starved for 16 h, then treated with 0.5 nM of HGF with 2% FBS for 24 h. EMT-related protein expression (E-cadherin, vimentin, and Snail) was examined by Western blotting. (FIG. 4D) WT or KO HCT116 and HT29 cells were treated with HGF (0.5 nM) for 24 h. Invasion by HCT116 and HT29 cells was examined by Transwell chamber assay with matrigel. (FIG. 4E) HCT116 and HT29 cells were starved for 16 h, then treated with 0.5 nM of HGF with 2% FBS for 24 h. EMT-related protein expression (E-cadherin, Vimentin, and Snail) was examined by Western blotting. (FIG. 4F) HCT116 and HT29 cells were starved for 16 h, then treated with 0.5 nM of HGF with 2% FBS for 24 h. Cell invasion was assessed by a Transwell assay with matrigel. (FIG. 4G) HCT116 cells after shLuc and shHGFR treatment were treated with 50 nM of EpEX-His. HCT116 cells after shLuc and shHGFR treatment were treated with 50 nM of EpEX-His with 2% FBS for 24 h. EMT-related protein expression (E-cadherin, Vimentin, and Snail) was examined by Western blotting. (FIG. 4H) Cell invasion was examined by Transwell chamber assay with matrigel. (FIG. 4I) Starved HCT116 cells were treated SU (10 μM) for 1 h, followed by treatment with EpEX-His (50 nM) for 24 h. Phosphorylated GSK3β, active-β-catenin, and Snail were detected by Western blotting. (FIG. 4J) HCT116 cells were starved for 16 h, then treated with 50 nM EpEX-His for 24 min. AKT inhibitor LY294002 (25 μM), ERK inhibitor U0126 (20 μM), or PF-562271 (10 μM) were applied 1 h before EpEX treatment. Protein expression of phosphorylated GSK3β and Snail was examined by Western blotting. (FIG. 4K) HCT116 cells were starved for 16 h, then treated with 50 nM EpEX, and SU (10 μM), LY (25 μM), UO (20 μM) or PF (10 μM). Cell invasion was examined by Transwell chamber assay with matrigel. (FIG. 4L) Protein expression was analyzed by Western blotting in EpEX-His (50 nM) treated HCT116 cells after treatment with or without 2 μM GSK3β inhibitor (BIO) for 24 h. Quantification of the normalized protein expression in the right panel.
FIGS. 5A to 5I. EpEX promotes Snail protein stability through inhibition of ubiquitination-mediated proteasomal degradation. (FIG. 5A) The gene expression of EMT markers and regulators was detected by qRT-PCR in Wild-type (WT) or EpCAM knockout (KO) of HCT116 and HT29 cells. (FIG. 5B) Stability of Snail protein in WT or KO of HCT116 cells. Cells were treated with cyclohexamide (CHX) 100 μg/ml at the indicated intervals and subjected to Western blotting. (FIG. 5C) The protein expression of Snail was analyzed in WT or KO HCT116 cells by treating with or without […] MG132 (proteasome inhibitor) for 6 h, followed by Western blotting. (FIG. 5D) WT or KO HCT116 cells were treated with 10 μM MG132 for 6 h before cell collection. The lysates were subjected to immunoprecipitation using anti-Snail antibody and input. Western blotting was performed with the indicated antibodies to detect ubiquitinated Snail protein. (FIG. 5E) Stability of Snail protein in HCT116 cells after EpEX (50 nM) treatment for 24 h. Cells were treated with cyclohexamide (CHX; 100 μg/ml) for the indicated intervals and then subjected to Western blotting. (FIG. 5F) Expression of the gene encoding SNAIL was detected by qRT-PCR in HCT116 cells after EpEX (50 nM) treatment for 24 h. (FIG. 5G) The protein expression of Snail in HCT116 was analyzed cells by Western blotting after EpEX (50 nM) treatment for 24 h, and treatment with or without 10 μM MG132 (proteasome inhibitor) for 6 h. […]

[1] = LY294002 25 μM, U0126 20 μM or PF-562271 10 μM 1 h before 50 nM EpEX-His for 24 min, FIG. 4J
[2] = SU 10 μM 1 h, then EpEX-His 50 nM 24 h, FIG. 4I

Row | SMILES | EpEX-mediated GSK3β activity [1] | EpEX-mediated Snail protein expression [1] | EpEX-induced active β-catenin and Snail protein expression [2] | EpEX-mediated GSK3β activity [2]
1 | CN(c1ncccc1CNc1nc(Nc2ccc3c(c2)CC(=O)N3)ncc1C(F)(F)F)S(C)(=O)=O [PF-562271] | attenuate EpEX-mediated GSK3β activity | attenuate | – | –
2 | N#CC(=C(/N)Sc1ccccc1N)/C(C#N)=C(\N)Sc1ccccc1N [U0126] | attenuate EpEX-mediated GSK3β activity | attenuate | – | –
3 | Cc1[nH]c(C=C2C(=O)Nc3ccc(S(=O)(=O)N(C)c4cccc(Cl)c4)cc32)c(C)c1C(=O)N1CCN(C)CC1 (stereo in doubt) [SU11274, (3Z)-N-(3-Chlorophenyl)-3-({3,5-dimethyl-4-[(4-methylpiperazin-1-yl)carbonyl]-1H-pyrrol-2-yl}methylene)-N-methyl-2-oxo-2,3-dihydro-1H-indole-5-sulfonamide] | – | – | abolish EpEX-induced active β-catenin and Snail protein expression | attenuate EpEX-mediated GSK3β activity
